Columns and labels:
Format in all cases: biochemical
[1] = target: T1, hCA-IX (Homo sapiens, UniProt Q16790); assay: biochemical
[2] = target: T2, hCA-XII (Homo sapiens, UniProt O43570); assay: Carbonic anhydrase inhibition assay
[3] = target: T2, hCA-XII; assay: Enzyme kinetics; conditions: CA-XII; substrate 0-900 µM; inhibitor 0, 0.4, 0.6, 0.8 µM
[4] = target: T3, hCA-II (Homo sapiens, UniProt P00918); assay: Carbonic anhydrase inhibition assay
[5] = target: T1, hCA-IX; assay: Enzyme kinetics; conditions: CA-IX; substrate 0-900 µM; inhibitor 0, 0.1, 0.2, 0.3 µM
[6] = target: T3, hCA-II; assay: Enzyme kinetics; conditions: CA-II; substrate 0-900 µM; inhibitor 0, 0.2, 0.4, 0.6 µM

T2 sequence (O43570 25-354): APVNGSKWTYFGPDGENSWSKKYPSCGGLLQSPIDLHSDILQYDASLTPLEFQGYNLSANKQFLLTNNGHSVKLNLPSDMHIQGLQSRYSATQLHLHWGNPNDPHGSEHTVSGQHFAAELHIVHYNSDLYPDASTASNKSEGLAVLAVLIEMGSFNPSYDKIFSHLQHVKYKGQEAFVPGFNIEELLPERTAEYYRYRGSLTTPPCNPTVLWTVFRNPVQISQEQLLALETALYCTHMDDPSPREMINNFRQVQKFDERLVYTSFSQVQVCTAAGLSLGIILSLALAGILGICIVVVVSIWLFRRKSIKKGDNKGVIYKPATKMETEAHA

| SMILES | IC50 [1] [nM] | IC50 [2] [nM] | IC50 [4] [nM] | inhibition of hCA-XII in words [2] | also measured |
| --- | --- | --- | --- | --- | --- |
| NS(=O)(=O)c1ccc(-c2ccc(Nc3ccc(Cl)cc3)cc2)cc1 [Compound 9a, 4’-((4-chlorophenyl)amino)-[1,1’-biphenyl]−4-sulfonamide] | 2790 ± 20 | 1050 ± 100 |  |  |  |
| COC(=O)c1ccc(Nc2ccc(-c3ccc(S(N)(=O)=O)cc3)cc2)cc1 [Compound 9b, Methyl 4-((4’-sulfamoyl-[1,1’-biphenyl]−4-yl)amino)benzoate] | 1460 ± 80 | 690 ± 150 | 1030 ± 100 |  | Mode of Enzyme Inhibition [3]: Competitive |
| Cc1cc(C)cc(Nc2ccc(-c3ccc(S(N)(=O)=O)cc3)cc2)c1 [Compound 9c, 4’-((3,5-dimethylphenyl)amino)-[1,1’-biphenyl]−4-sulfonamide] |  |  |  | inactive | inhibition of hCA-IX in words [1]: inactive; inhibition of hCA-II in words [4]: inactive |
| NS(=O)(=O)c1ccc(-c2ccc(Nc3ccncc3)cc2)cc1 [Compound 9d, 4’-(pyridin-4-ylamino)-[1,1’-biphenyl]−4-sulfonamide] |  |  | 1010 ± 100 |  | inhibitor potential as compared to standard inhibitor acetazolamide ([1]; hCA-IX): 8 fold; Mode of Enzyme Inhibition [5]: Uncompetitive |
| NS(=O)(=O)c1ccc(-c2ccc(Nc3ccc(F)c(Cl)c3)cc2)cc1 [Compound 9e, 4’-((3-chloro-4-fluorophenyl)amino)-[1,1’-biphenyl]−4-sulfonamide] | 3430 ± 150 |  |  | moderate inhibition | Mode of Enzyme Inhibition [6]: Competitive |

Reference: publication PMC12264121 (Scientific Reports, 2025)
